Results: ChEMBL document CHEMBL4184317, “Discovery of Tetrahydroquinoxalines as Bromodomain and Extra-Terminal Domain (BET) Inhibitors with Selectivity for the Second Bromodomain” (J Med Chem, 2018)
≈ marks a conversion by molar mass, not a printed value.

Tests used:
[1] = target: T1, Bromodomain-containing protein 2 (Homo sapiens, UniProt P25440); assay: Inhibition of human BRD2 BD2 after 30 mins by TR-FRET assay
[2] = target: T2, Bromodomain-containing protein 3 (Homo sapiens, UniProt Q15059); assay: Inhibition of BRD3 BD2 (unknown origin) after 30 mins by TR-FRET assay
[3] = target: T3, Bromodomain testis-specific protein (Homo sapiens, UniProt Q58F21); assay: Inhibition of BRDT BD1 (unknown origin) after 30 mins by TR-FRET assay
[4] = Permeability of the compound by PAMPA; format: ADME; settings: read-out: permeability
[5] = Solubility of the compound in pH 7.4 phosphate buffered saline by chemiluminescent nitrogen detection method; format: physicochemical
[6] = Solubility of the compound in FaSSIF at pH 6.5 after 16 hrs by HPLC method; format: physicochemical
[7] = target: Bromodomain-containing protein 4 (Homo sapiens, UniProt O60885); assay: Binding affinity to human partial length DNA-tagged BRD4 isoform long BD1 expressed in bacterial by BROMOscan method
[8] = target: T1, Bromodomain-containing protein 2; assay: Binding affinity to human partial length DNA-tagged BRD2 isoform 1 BD2 expressed in bacterial by BROMOscan method
[9] = target: T2, Bromodomain-containing protein 3; assay: Binding affinity to human partial length DNA-tagged BRD3 BD2 expressed in bacterial by BROMOscan method
[10] = target: Transcription initiation factor TFIID subunit 1 (Homo sapiens, UniProt P21675); assay: Binding affinity to human partial length DNA-tagged TAF1 BD2 expressed in bacterial by BROMOscan method
[11] = target: ATPase family AAA domain-containing protein 2 (Homo sapiens, UniProt Q6PL18); assay: Binding affinity to human partial length DNA-tagged ATAD2A expressed in bacterial by BROMOscan method
[12] = target: Bromodomain-containing protein 7 (Homo sapiens, UniProt Q9NPI1); assay: Binding affinity to human partial length DNA-tagged BRD7 expressed in mammalian expression system by BROMOscan method
[13] = target: Chromatin remodeling regulator CECR2 (Homo sapiens, UniProt Q9BXF3); assay: Binding affinity to human partial length DNA-tagged CECR2 expressed in bacteria by BROMOscan method
CREB-binding protein = CREB-binding protein (Homo sapiens, UniProt Q92793); assay: Binding affinity to human partial length DNA-tagged CREBBP expressed in bacteria by BROMOscan method
Protein polybromo-1 = Protein polybromo-1 (Homo sapiens, UniProt Q86U86); assay: Binding affinity to human partial length DNA-tagged PBRM1 BD1 expressed in bacteria by BROMOscan method
[14] = target: Histone acetyltransferase KAT2B (Homo sapiens, UniProt Q92831); assay: Binding affinity to human partial length DNA-tagged PCAF expressed in mammalian expression system by BROMOscan method
[15] = target: SWI/SNF-related matrix-associated actin-dependent regulator of chromatin subfamily A member 4 (Homo sapiens, UniProt P51532); assay: Binding affinity to human partial length DNA-tagged SMARCA4 expressed in bacteria by BROMOscan method
[16] = target: Transcription initiation factor TFIID subunit 1-like (Homo sapiens, UniProt Q8IZX4); assay: Binding affinity to human partial length DNA-tagged TAF1L BD2 expressed in bacteria by BROMOscan method
[17] = target: Transcription intermediary factor 1-alpha (Homo sapiens, UniProt O15164); assay: Binding affinity to human partial length DNA-tagged TRIM24(PHD,Bromo.) expressed in bacteria by BROMOscan method
Homo sapiens [18] = species on record: Homo sapiens; assay: Selectivity ratio of Kd for human partial length DNA-tagged BRPF1 to Kd for human partial length DNA-tagged BRD4 isoform long BD2
[19] = target: T3, Bromodomain testis-specific protein; assay: Selectivity ratio of Kd for human partial length DNA-tagged BRDT isoform b BD1 to Kd for human partial length DNA-tagged BRDT isoform b BD2
Homo sapiens [20] = species on record: Homo sapiens; assay: Selectivity ratio of IC50 for BRD3 BD1 (unknown origin) to IC50 for BRD3 BD2 (unknown origin)
Homo sapiens [21] = species on record: Homo sapiens; assay: Selectivity ratio of IC50 for BRDT BD1 (unknown origin) to IC50 for BRDT BD2 (unknown origin)
[22] = target: Bromodomain-containing protein 4 (Homo sapiens, UniProt O60885, Y390A)
PBMC = assay: cells; settings: Homo sapiens, read-out: pIC50 (converted)
Description: Antiinflammatory activity in human PBMC assessed as inhibition of LPS-induced MCP1 release preincubated for 30 mins followed by LPS challenge measured after 24 hrs by immunoassay

physchem = settings: buffer, pH 7.4
Description: Chromatographic hydrophobicity index, log D of the compound at pH 7.4 by HPLC method

T2 sequence (Q15059 whole entry): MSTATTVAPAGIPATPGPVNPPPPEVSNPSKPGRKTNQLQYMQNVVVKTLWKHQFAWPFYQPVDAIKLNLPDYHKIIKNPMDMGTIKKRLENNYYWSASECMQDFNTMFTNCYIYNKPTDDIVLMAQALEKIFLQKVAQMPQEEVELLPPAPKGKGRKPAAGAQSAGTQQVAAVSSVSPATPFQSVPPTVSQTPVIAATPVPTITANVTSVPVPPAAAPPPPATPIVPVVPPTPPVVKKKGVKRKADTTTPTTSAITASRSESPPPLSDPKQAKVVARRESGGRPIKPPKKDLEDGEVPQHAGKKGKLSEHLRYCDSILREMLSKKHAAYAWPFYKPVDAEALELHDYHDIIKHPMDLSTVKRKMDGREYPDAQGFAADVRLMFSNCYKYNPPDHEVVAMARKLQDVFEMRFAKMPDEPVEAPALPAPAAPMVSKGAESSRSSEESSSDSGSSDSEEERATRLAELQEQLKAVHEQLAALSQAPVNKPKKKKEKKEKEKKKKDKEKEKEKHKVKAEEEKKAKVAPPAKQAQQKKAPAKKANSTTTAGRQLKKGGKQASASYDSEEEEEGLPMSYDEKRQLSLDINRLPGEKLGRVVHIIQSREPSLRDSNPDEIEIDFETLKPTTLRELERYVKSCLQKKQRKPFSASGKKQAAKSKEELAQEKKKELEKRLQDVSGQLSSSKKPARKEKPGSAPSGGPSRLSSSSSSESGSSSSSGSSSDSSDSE
T1 sequence (P25440 whole entry): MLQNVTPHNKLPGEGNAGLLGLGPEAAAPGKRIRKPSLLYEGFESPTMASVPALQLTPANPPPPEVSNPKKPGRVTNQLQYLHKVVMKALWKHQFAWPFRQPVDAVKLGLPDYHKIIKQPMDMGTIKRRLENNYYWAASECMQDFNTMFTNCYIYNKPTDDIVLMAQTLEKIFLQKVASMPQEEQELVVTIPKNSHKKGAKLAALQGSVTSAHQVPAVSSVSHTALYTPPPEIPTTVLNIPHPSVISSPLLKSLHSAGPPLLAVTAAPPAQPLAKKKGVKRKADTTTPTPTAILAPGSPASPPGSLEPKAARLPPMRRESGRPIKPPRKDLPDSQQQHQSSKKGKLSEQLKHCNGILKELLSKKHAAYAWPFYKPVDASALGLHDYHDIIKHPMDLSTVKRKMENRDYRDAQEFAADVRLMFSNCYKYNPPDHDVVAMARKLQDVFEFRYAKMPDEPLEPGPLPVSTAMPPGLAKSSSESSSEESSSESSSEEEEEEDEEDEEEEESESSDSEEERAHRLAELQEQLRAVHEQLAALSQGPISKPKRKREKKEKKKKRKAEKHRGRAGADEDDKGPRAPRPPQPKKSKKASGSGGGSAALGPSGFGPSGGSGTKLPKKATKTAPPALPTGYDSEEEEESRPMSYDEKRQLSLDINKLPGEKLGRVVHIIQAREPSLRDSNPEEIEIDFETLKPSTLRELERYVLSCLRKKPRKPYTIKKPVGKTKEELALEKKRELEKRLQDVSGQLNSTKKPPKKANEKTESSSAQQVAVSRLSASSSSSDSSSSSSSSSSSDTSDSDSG
Sequence of Transcription initiation factor TFIID subunit 1-like (Q8IZX4 whole entry): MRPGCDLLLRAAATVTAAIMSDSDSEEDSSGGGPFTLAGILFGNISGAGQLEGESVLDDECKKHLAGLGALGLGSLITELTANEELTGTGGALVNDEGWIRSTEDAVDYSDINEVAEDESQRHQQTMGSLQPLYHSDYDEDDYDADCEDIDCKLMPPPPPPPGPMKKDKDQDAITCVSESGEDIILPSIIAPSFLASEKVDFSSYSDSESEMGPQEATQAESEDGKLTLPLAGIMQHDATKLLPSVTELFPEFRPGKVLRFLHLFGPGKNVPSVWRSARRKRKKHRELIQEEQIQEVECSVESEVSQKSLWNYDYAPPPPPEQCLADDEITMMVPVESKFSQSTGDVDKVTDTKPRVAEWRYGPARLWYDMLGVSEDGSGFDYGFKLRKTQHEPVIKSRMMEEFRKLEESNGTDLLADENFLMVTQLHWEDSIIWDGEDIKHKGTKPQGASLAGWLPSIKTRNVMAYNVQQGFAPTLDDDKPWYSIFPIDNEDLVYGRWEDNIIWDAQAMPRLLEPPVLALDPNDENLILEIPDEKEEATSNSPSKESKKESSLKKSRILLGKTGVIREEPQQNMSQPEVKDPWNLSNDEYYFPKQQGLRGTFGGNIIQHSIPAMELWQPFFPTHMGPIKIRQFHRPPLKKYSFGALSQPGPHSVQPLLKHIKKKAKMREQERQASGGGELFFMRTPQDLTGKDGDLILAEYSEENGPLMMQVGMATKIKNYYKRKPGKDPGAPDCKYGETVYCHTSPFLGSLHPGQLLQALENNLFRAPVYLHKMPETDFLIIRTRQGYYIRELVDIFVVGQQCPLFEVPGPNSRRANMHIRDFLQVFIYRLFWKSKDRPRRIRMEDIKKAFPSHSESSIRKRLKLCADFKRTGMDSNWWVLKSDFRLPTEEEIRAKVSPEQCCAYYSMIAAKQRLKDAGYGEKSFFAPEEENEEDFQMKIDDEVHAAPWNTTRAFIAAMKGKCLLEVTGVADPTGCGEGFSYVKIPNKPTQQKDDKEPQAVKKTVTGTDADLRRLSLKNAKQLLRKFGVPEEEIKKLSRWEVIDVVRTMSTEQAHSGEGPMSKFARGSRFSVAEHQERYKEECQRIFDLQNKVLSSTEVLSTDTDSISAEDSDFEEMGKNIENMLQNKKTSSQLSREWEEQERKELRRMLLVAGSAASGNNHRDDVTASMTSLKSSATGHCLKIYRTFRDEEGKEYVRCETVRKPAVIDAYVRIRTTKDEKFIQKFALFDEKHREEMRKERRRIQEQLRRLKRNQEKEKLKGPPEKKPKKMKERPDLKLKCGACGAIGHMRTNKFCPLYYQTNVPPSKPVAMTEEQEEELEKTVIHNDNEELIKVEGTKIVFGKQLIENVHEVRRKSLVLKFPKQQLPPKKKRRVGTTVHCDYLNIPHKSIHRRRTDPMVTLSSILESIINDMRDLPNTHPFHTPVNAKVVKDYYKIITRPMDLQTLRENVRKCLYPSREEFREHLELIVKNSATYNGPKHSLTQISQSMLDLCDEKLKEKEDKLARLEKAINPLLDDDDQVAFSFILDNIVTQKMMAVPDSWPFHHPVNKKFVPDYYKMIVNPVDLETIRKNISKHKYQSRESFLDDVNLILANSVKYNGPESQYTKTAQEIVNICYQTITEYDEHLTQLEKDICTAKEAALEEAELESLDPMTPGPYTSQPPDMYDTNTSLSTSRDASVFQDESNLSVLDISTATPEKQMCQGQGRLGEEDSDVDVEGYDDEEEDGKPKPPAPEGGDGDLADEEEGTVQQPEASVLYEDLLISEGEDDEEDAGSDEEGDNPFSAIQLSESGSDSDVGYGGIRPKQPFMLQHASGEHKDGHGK
Sequence of SWI/SNF-related matrix-associated actin-dependent regulator of chromatin subfamily A member 4 (P51532 whole entry): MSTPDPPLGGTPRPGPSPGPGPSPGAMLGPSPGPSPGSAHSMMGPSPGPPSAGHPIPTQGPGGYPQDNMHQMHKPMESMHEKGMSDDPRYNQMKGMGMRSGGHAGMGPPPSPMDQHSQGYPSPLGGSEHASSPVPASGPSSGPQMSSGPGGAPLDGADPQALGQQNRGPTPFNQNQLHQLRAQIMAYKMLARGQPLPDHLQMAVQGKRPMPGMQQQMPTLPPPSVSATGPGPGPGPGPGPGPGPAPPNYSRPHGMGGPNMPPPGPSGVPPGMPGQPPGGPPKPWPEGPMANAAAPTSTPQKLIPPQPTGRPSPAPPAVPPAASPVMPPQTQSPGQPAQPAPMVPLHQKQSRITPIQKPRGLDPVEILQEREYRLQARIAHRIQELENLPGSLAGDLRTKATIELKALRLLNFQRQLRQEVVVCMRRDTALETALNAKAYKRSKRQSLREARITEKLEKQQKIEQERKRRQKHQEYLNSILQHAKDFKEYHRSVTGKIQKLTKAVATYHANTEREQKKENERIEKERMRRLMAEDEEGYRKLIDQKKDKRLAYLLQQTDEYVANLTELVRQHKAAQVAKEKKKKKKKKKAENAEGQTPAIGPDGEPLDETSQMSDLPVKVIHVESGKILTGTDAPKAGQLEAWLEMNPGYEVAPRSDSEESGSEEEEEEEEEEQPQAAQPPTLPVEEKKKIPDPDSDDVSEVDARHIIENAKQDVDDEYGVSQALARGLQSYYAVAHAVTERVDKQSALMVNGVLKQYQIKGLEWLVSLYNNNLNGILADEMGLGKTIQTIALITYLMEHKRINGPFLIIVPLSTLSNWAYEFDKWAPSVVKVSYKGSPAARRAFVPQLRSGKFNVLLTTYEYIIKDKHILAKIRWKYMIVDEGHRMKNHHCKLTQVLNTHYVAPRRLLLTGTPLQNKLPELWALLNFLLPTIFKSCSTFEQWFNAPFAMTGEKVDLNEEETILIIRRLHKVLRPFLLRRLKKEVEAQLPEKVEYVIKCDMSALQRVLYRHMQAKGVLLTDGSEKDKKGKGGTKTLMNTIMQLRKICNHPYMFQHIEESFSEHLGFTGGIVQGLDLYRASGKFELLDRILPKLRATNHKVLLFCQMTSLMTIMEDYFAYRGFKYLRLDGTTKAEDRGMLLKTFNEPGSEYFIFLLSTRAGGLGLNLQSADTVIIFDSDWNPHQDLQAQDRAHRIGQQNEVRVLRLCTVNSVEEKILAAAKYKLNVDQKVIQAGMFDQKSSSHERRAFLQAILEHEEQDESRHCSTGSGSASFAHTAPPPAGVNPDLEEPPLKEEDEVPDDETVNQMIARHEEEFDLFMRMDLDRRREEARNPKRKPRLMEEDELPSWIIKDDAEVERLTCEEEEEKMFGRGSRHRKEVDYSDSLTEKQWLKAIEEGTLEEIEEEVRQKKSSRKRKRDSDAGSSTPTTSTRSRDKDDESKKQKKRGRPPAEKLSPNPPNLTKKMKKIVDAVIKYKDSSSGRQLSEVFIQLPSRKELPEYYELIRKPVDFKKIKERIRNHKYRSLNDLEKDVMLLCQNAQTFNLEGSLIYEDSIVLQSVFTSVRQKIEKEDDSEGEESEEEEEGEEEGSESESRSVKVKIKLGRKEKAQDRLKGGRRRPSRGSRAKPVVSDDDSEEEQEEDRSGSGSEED

In the case of CC(=O)N1c2ccc(C3=CCNCC3)cc2N(Cc2ccccc2CO)C[C@@H]1C1CC1, the IC50 [1] is reported as 0.316 µM, the IC50 [2] is reported as 0.0501 µM and the IC50 [3] is reported as 1.58 µM. For the same molecule, the Papp [4] was 110 nm/s, the solubility [5] was no less than 418 µM and the solubility at 16 h [6] was 0.386 mg/mL (≈ 924 µM). The Kd [7] was 1.55 µM, the Kd [8] was 0.0324 µM and the Kd [9] was 0.0195 µM. It also gave a Kd [10] of 14.5 µM, a Kd [11] greater than 30.2 µM and a Kd [12] greater than 30.2 µM. For the same molecule, the Kd [13] was greater than 30.2 µM, the Kd (CREB-binding protein) was greater than 30.2 µM and the Kd (Protein polybromo-1) was greater than 30.2 µM. For the same molecule, the Kd [14] was greater than 30.2 µM, the Kd [15] was greater than 30.2 µM and the Kd [16] was greater than 30.2 µM. The Kd [17] was greater than 30.2 µM, the Selectivity ratio (Homo sapiens [18]) was 372 and the Selectivity ratio [19] was 91. For the same molecule, the Ratio IC50 (Homo sapiens [20]) was 25, the Ratio IC50 (Homo sapiens [21]) was 8 and the IC50 [22] was 3.16 µM. For the same molecule, the IC50 (PBMC) was 0.0398 µM and the chromatographic logD (physchem) was 2.3.
